US20020037311A1, “Transdermal delivery of lasofoxifene” (priority 2000, published 2002)
Where “and” joins values, the source holds several entries; their conditions need not be identical. Equal values may be shown once. Read-outs that look alike come from different tables or passages of the source.

How the values were obtained:
[1] = In vitro skin flux, adhesive matrix systems, modified Franz diffusion cells; assay type: in vitro ADME, human; conditions: for Average Daily Flux of CP-336,156 over 7 Days: Example 1 matrix TSR 58 adhesive/triacetin/CP-336,156 84/10/6% w/w; for Cumulative Permeation of CP-336,156 over 24 Hours, Enhanced 1.5% w/w NaLG: Example 2 matrix Morstik 214, 3% w/w CP-336,156 tartrate salt + 1.5% w/w sodium lauroyl glycolate; for Cumulative Permeation of CP-336,156 over 24 Hours, Unenhanced: Example 2 matrix Morstik 214 water-based adhesive, 3% w/w CP-336,156 tartrate salt, no enhancer; for Enhancement Factor Q24 enhanced/Q24 unenhanced: Example 2 matrix, 1.5% w/w NaLG vs unenhanced
Description: Pressure sensitive adhesive matrix systems prepared according to the teachings of U.S. Pat. No. 5,952,000, incorporated herein by reference. First, the solids content of the adhesive solution (water or organic solvent based) was determined by placing a known weight of solution in a weighed aluminum dish and evaporating the solvents overnight in a 70. degree. C. convection oven. The solid adhesive content of the solution was calculated by dividing the adhesive solid weight after drying by the initial total solution weight. Next, a weighed quantity of adhesive solution was added to a glass bottle and the drug substance, permeation enhancer, and other excipients were weighed and added to the adhesive solution in a quantity necessary to achieve the desired dry matrix film composition. The solution containing the adhesive polymer, drug substance, and other excipients as necessary was then mixed overnight. After mixing, approximately 8 ml of the solution was dispensed on a silanized polyester release liner and film cast using a casting knife with a gap size appropriate to achieve a final dried thickness of approximately 0.05 mm. The cast film was dried in a 70° C. convection oven until all solvents had evaporated to yield a dried matrix (15 minutes for organic solvent based adhesives, 30 minutes for water emulsion based adhesives). Finally, an 0.08 mm thick occlusive polyethylene backing film was laminated onto the dried adhesive matrix, and these systems were then used to conduct in vitro skin flux experiments as described below.
(§1) In vitro skin flux studies were conducted using human cadaver epidermal membrane in modified Franz non-jacketed diffusion cells. The epidermal membrane (stratum corneum and epidermis) was separated from whole skin (epidermal membrane and dermis) by the method of Kligman and Christopher (Arch. Dermatol. 88:702 (1963)). This method involves the exposure of the full-thickness skin to water at 60.degree C. for a time period of 60 seconds. After this period, the epidermal membrane was gently peeled off the dermis and stored for later use in aluminum foil at −5° C.
Prior to each permeation experiment with a matrix system, the matrix system was cut into a circular sample of 0.7 cm^2 area and the silanized release liner was removed. The adhesive was affixed to the stratum corneum side of the thawed epidermal membrane which was then cut to an appropriate size and clamped in place between the two halves of the diffusion cell with the stratum corneum facing the donor compartment. The receiver compartment was filled with water or an aqueous solution appropriate to maintain sink conditions for the drug. All receiver solutions included 0.02% (w/w) sodium azide (NaN3) to inhibit bacterial growth. The diffusion cell was placed in a temperature controlled circulating water bath calibrated to maintain the surface temperature of the skin at 32° C. The receiver compartment was constantly stirred by a magnetic stir-bar in the receiver compartment agitated by a magnetic stirring module placed under the water bath.
(§2) The following sampling procedure was used for all dosage forms. At predetermined sampling time points, the entire contents of the receiver compartment were collected for drug quantitation and the receiver compartment was filled with fresh solution, taking care to eliminate any air bubbles at the skin/solution interface. […]

[2] = In vitro skin flux, hydroalcoholic gels (liquid reservoir), finite occluded dose, modified Franz diffusion cells; assay type: in vitro ADME, human; conditions: for Average Daily Flux of CP-336,156 over 7 Days: Example 3 gel EtOH/H2O/Gly/GMO/ML 50/15/30/2.5/2.5% v/v, CP-336,156 tartrate salt 2 mg/ml; for Average Daily Flux of CP-336,156 over 6 Days: Example 4 gel EtOH/H2O/Gly/GMO/LA 30/38/30/1/1% v/v (two-phase dispersion); for Average Daily Flux of CP-336,156 over 6 Days / Average Daily flux over 7 Days, Unenhanced 0% GMO / Average Daily flux over 7 Days, 0.03% GMO / Average Daily flux over 7 Days, 0.06% GMO / Average Daily flux over 7 Days, 0.12% GMO: CP-336,156 tartrate salt 6 mg/ml; for Average Daily flux over 7 Days, Unenhanced 0% GMO: Example 5 gel EtOH/IPA/H2O/Gly 26.25/8.75/35/30% v/v; for Average Daily flux over 7 Days, 0.03% GMO / Average Daily flux over 7 Days, 0.06% GMO / Average Daily flux over 7 Days, 0.12% GMO: Example 5 gel EtOH/IPA/H2O/Gly; for Average Daily flux over 7 Days, 0.03% GMO: 0.03% v/v glycerol monooleate; for Average Daily flux over 7 Days, 0.06% GMO: 0.06% v/v glycerol monooleate; for Average Daily flux over 7 Days, 0.12% GMO: 0.12% v/v glycerol monooleate (cloudy dispersion); for E = Enhancement Factor = Average Daily Flux from Enhanced Formulation/Average Daily Flux from Unenhanced Control: Example 5 gel
Description: Hydroalcoholic gels were prepared on a 10 ml scale as follows. Ethyl alcohol (190 proof ethanol), water, glycerin, enhancer and drug were combined in the appropriate proportions and mixed for several hours. The gelling agent (hydroxypropylcellulose) was added and the solution was mixed briefly at high shear, then mixed at low shear until a gel was formed.
as §1
Permeation experiments with hydroalcoholic gels were performed using finite occluded doses. The occluded dose is an appropriate in vitro model for the application of a transdermal patch drug delivery system containing a liquid or gel reservoir.
Occluded dosing experiments were set-up according to the following procedure. Prior to skin permeation experiments, the epidermal membrane was cut to an appropriate size and placed between the two halves of the diffusion cell with the epidermal side facing the receiver compartment. The receiver compartment was filled with an appropriate solution then the diffusion cell was placed in a circulating water bath calibrated to maintain the temperature of the skin surface at 32° C. and allowed to hydrate overnight. After hydration, a sample of the gel (75 µl) was pipetted into a cavity created by placing a polyethylene washer over the stratum corneum surface. This cavity was covered with an occlusive backing film which was clamped in place.
as §2

[3] = ovariectomized rats; cited from earlier work
[4] = postmenopausal women; cited from earlier work
[5] = female and male rats; cited from earlier work
[6] = male rats; cited from earlier work
[7] = compared with estradiol therapy; cited from earlier work
[8] = second skin source (name not given), 5 cells
[9] = third skin source (name not given), 5 cells

Compound: Oc1ccc2c(c1)CC[C@H](c1ccccc1)[C@@H]2c1ccc(OCCN2CCCC2)cc1 [CP-336,156, lasofoxifene]
- Average Daily Flux of CP-336,156 over 7 Days ([1]; All Skins, Mean ± SEM): 8.6 ± 1.2 µg/cm²/day
- Average Daily Flux of CP-336,156 over 7 Days ([1]; Skin 1B, 4 diffusion cells): 5.7 ± 0.8 µg/cm²/day
- Average Daily Flux of CP-336,156 over 7 Days ([1]; Skin 1C, 8 diffusion cells): 9.2 ± 2.9 µg/cm²/day
- Average Daily Flux of CP-336,156 over 7 Days ([1]; Skin 1D, 4 diffusion cells): 13.4 ± 7.8 µg/cm²/day
- Average Daily Flux of CP-336,156 over 7 Days ([1]; Skin 1E, 4 diffusion cells): 10.2 ± 3.4 µg/cm²/day
- Average Daily Flux of CP-336,156 over 7 Days ([1]; Skin 1F, 4 diffusion cells): 5.1 ± 1.1 µg/cm²/day
- Average Daily Flux of CP-336,156 over 7 Days ([1]; Skin 1G, 4 diffusion cells): 11.4 ± 2.4 µg/cm²/day
- Average Daily Flux of CP-336,156 over 7 Days ([1]; Skin IA, 7 diffusion cells): 5.5 ± 3.4 µg/cm²/day
- Cumulative Permeation of CP-336,156 over 24 Hours, Enhanced 1.5% w/w NaLG ([1]; All Skins Mean ± SEM): 1.42 ± 1.05 μg/cm^2/24 h
- Cumulative Permeation of CP-336,156 over 24 Hours, Enhanced 1.5% w/w NaLG ([1]; Skin 2A, 5 cells): 0.30 ± 0.12 μg/cm^2/24 h
- Cumulative Permeation of CP-336,156 over 24 Hours, Enhanced 1.5% w/w NaLG [1, 8]: 3.51 ± 0.93 μg/cm^2/24 h
- Cumulative Permeation of CP-336,156 over 24 Hours, Enhanced 1.5% w/w NaLG [1, 9]: 0.46 ± 0.16 μg/cm^2/24 h
- Cumulative Permeation of CP-336,156 over 24 Hours, Unenhanced ([1]; All Skins Mean ± SEM): 0.99 ± 0.85 μg/cm^2/24 h
- Cumulative Permeation of CP-336,156 over 24 Hours, Unenhanced ([1]; Skin 2A, 5 cells): 0.13 ± 0.09 μg/cm^2/24 h
- Cumulative Permeation of CP-336,156 over 24 Hours, Unenhanced [1, 8]: 2.70 ± 1.08 μg/cm^2/24 h
- Cumulative Permeation of CP-336,156 over 24 Hours, Unenhanced [1, 9]: 0.15 ± 0.09 μg/cm^2/24 h
- Enhancement Factor Q24 enhanced/Q24 unenhanced ([1]; All Skins Mean ± SEM): 2.2 and 2.21 ± 0.51
- Enhancement Factor Q24 enhanced/Q24 unenhanced ([1]; Skin 2A): 2.28
- Enhancement Factor Q24 enhanced/Q24 unenhanced ([1]; second skin source (name not given)): 1.30
- Enhancement Factor Q24 enhanced/Q24 unenhanced ([1]; third skin source (name not given)): 3.06
- Average Daily Flux of CP-336,156 over 7 Days ([2]; All Skins, Mean ± SEM): 21.6 ± 2.3 ug/cm^2/day
- Average Daily Flux of CP-336,156 over 7 Days ([2]; Skin 3A, 8 cells): 174 ± 7.7 ug/cm^2/day
- Average Daily Flux of CP-336,156 over 7 Days ([2]; Skin 3B, 4 cells): 15.3 ± 8.7 ug/cm^2/day
- Average Daily Flux of CP-336,156 over 7 Days ([2]; Skin 3C, 8 cells): 23.9 ± 11.0 ug/cm^2/day
- Average Daily Flux of CP-336,156 over 7 Days ([2]; Skin 3D, 4 cells): 27.9 ± 2.2 ug/cm^2/day
- Average Daily Flux of CP-336,156 over 7 Days ([2]; Skin 3E, 4 cells): 21.2 ± 9.9 ug/cm^2/day
- Average Daily Flux of CP-336,156 over 7 Days ([2]; Skin 3F, 4 cells): 15.4 ± 7.2 ug/cm^2/day
- Average Daily Flux of CP-336,156 over 7 Days ([2]; Skin 3G, 4 cells): 30.3 ± 4.9 ug/cm^2/day
- Average Daily Flux of CP-336,156 over 6 Days ([2]; All Skins, Mean ± SEM): 38.3 ± 3.3 ug/cm^2/day
- Average Daily Flux of CP-336,156 over 6 Days ([2]; Skin 4A, 5 cells): 42.4 ± 15.5 ug/cm^2/day
- Average Daily Flux of CP-336,156 over 6 Days ([2]; Skin 4B, 5 cells): 36.3 ± 5.2 ug/cm^2/day
- Average Daily Flux of CP-336,156 over 6 Days ([2]; Skin 4C, 5 cells): 36.2 ± 14.9 ug/cm^2/day
- Average Daily flux over 7 Days, Unenhanced 0% GMO ([2]; All Skins): 11.8 ug/cm^2/24 h
- Average Daily flux over 7 Days, Unenhanced 0% GMO ([2]; Skin 5A, n = 2-5 cells): 6.4 ug/cm^2/24 h
- Average Daily flux over 7 Days, Unenhanced 0% GMO ([2]; Skin 5B, n = 2-5 cells): 17.4 ug/cm^2/24 h
- Average Daily flux over 7 Days, Unenhanced 0% GMO ([2]; Skin 5C, n = 2-5 cells): 11.6 ug/cm^2/24 h
- Average Daily flux over 7 Days, 0.03% GMO ([2]; All Skins): 33.0 ug/cm^2/24 h
- Average Daily flux over 7 Days, 0.03% GMO ([2]; Skin 5A, n = 2-5 cells): 7.1 ug/cm^2/24 h
- Average Daily flux over 7 Days, 0.03% GMO ([2]; Skin 5B, n = 2-5 cells): 69.5 ug/cm^2/24 h
- Average Daily flux over 7 Days, 0.03% GMO ([2]; Skin 5C, n = 2-5 cells): 22.4 ug/cm^2/24 h
- Average Daily flux over 7 Days, 0.06% GMO ([2]; All Skins): 35.6 ug/cm^2/24 h
- Average Daily flux over 7 Days, 0.06% GMO ([2]; Skin 5A, n = 2-5 cells): 11.6 ug/cm^2/24 h
- Average Daily flux over 7 Days, 0.06% GMO ([2]; Skin 5B, n = 2-5 cells): 74.9 ug/cm^2/24 h
- Average Daily flux over 7 Days, 0.06% GMO ([2]; Skin 5C, n = 2-5 cells): 20.3 ug/cm^2/24 h
- Average Daily flux over 7 Days, 0.12% GMO ([2]; All Skins): 41.8 Ug/cm^2/24 h
- Average Daily flux over 7 Days, 0.12% GMO ([2]; Skin 5A, n = 2-5 cells): 16.8 Ug/cm^2/24 h
- Average Daily flux over 7 Days, 0.12% GMO ([2]; Skin 5B, n = 2-5 cells): 85.2 Ug/cm^2/24 h
- Average Daily flux over 7 Days, 0.12% GMO ([2]; Skin 5C, n = 2-5 cells): 23.6 Ug/cm^2/24 h
- E = Enhancement Factor = Average Daily Flux from Enhanced Formulation/Average Daily Flux from Unenhanced Control ([2]; 0.03% GMO vs 0% GMO, All Skins): 2.34 ± 0.37
- E = Enhancement Factor = Average Daily Flux from Enhanced Formulation/Average Daily Flux from Unenhanced Control ([2]; 0.03% GMO vs 0% GMO, Skin 5A): 1.12
- E = Enhancement Factor = Average Daily Flux from Enhanced Formulation/Average Daily Flux from Unenhanced Control ([2]; 0.03% GMO vs 0% GMO, Skin 5B): 3.99
- E = Enhancement Factor = Average Daily Flux from Enhanced Formulation/Average Daily Flux from Unenhanced Control ([2]; 0.03% GMO vs 0% GMO, Skin 5C): 1.93
- E = Enhancement Factor = Average Daily Flux from Enhanced Formulation/Average Daily Flux from Unenhanced Control ([2]; 0.06% GMO vs 0% GMO, All Skins): 2.62 ± 0.43
- E = Enhancement Factor = Average Daily Flux from Enhanced Formulation/Average Daily Flux from Unenhanced Control ([2]; 0.06% GMO vs 0% GMO, Skin 5A): 1.81
- E = Enhancement Factor = Average Daily Flux from Enhanced Formulation/Average Daily Flux from Unenhanced Control ([2]; 0.06% GMO vs 0% GMO, Skin 5B): 4.30
- E = Enhancement Factor = Average Daily Flux from Enhanced Formulation/Average Daily Flux from Unenhanced Control ([2]; 0.06% GMO vs 0% GMO, Skin 5C): 1.74
- E = Enhancement Factor = Average Daily Flux from Enhanced Formulation/Average Daily Flux from Unenhanced Control ([2]; 0.12% GMO vs 0% GMO, All Skins): 3.18 ± .36
- E = Enhancement Factor = Average Daily Flux from Enhanced Formulation/Average Daily Flux from Unenhanced Control ([2]; 0.12% GMO vs 0% GMO, Skin 5A): 2.62
- E = Enhancement Factor = Average Daily Flux from Enhanced Formulation/Average Daily Flux from Unenhanced Control ([2]; 0.12% GMO vs 0% GMO, Skin 5B): 4.89
- E = Enhancement Factor = Average Daily Flux from Enhanced Formulation/Average Daily Flux from Unenhanced Control ([2]; 0.12% GMO vs 0% GMO, Skin 5C): 2.03
- bone loss [3]: prevent bone loss
- bone loss [4]: prevent bone loss
- total serum cholesterol [5]: decreased
- effect on prostate [6]: did not affect prostate
- uterine-stimulating effects [7]: without the uterine-stimulating effects
